Literature values in US8309061B2, “Formulations and methods for treating rhinosinusitis” (Dey Pharma, L.P., priority 2003, dated 2012).

solubility in dimethyl sulfoxide and dimethylformamide (dimethyl sulfoxide and dimethylformamide): freely soluble
solubility in methanol and 95% ethanol (methanol and 95% ethanol): slightly soluble
solubility in water (water): practically insoluble
Compound: CCC(=O)O[C@]1(C(=O)SCF)[C@H](C)C[C@H]2[C@@H]3C[C@H](F)C4=CC(=O)C=C[C@]4(C)[C@@]3(F)[C@@H](O)C[C@@]21C [Fluticasone propionate, S-(fluromethyl)6α,9-difluoro-11β-17-dihydroxy-16α-methyl-3-oxoandrosta-1,4-diene-17β-carbothioate, 17-propionate]
